Values of other authors, collected in patent US7648957B2, “Nutritional and therapeutic composition of an insulin sensitizer and a peptide fraction” (DSM IP Assets B.V., priority 2002, dated 2010).

Assays:
[1] = very high glucose levels
[2] = tested on: cell's response to insulin; details: on administration of the chemical, estimated

Substance: methylhydroxy chalcone polymer [MHCP]
- glucose levels in diabetic mice [1]: could normalise very high glucose levels
- rise of sensitivity to insulin [2]: around 20 fold
